Reference: US20140271930A1, “NONINVASIVE METHOD FOR MEASURING METABOLITES FOR SKIN HEALTH” (priority 2013, published 2014)
Marks after values point to notes of the source that are not given here. Peptide text beside a SMILES is read from it.

Test system: scalp of dandruff and non-dandruff subjects
Assay: Metabolite expression profiling (LC/MS/MS, GC/MS/MS) of scalp D-Squame tape strip extracts: non-dandruff, dandruff baseline, dandruff after 3 weeks anti-dandruff shampoo
Type: in vivo, human
Conditions: for Fold Change Wk 3 Sel vs Dandruff Baseline / Fold Change Wk 3 ZPT vs Dandruff Baseline / Fold Change Wk 3 ZPT vs Non-Dan Baseline / Fold Change Wk 3 Sel vs Non-Dan Baseline: metabolite level in scalp tape strips; for Fold Change Wk 3 Sel vs Dandruff Baseline / Fold Change Wk 3 ZPT vs Dandruff Baseline: standardized to soluble protein; for Fold Change Wk 3 Sel vs Dandruff Baseline: dandruff subjects after 3 weeks 1% selenium sulfide shampoo vs own baseline; for Fold Change Wk 3 ZPT vs Dandruff Baseline: dandruff subjects after 3 weeks 1% zinc pyrithione shampoo vs own baseline; for Fold Change Wk 3 ZPT vs Non-Dan Baseline: dandruff subjects after 3 weeks 1% ZPT shampoo vs non-dandruff subjects; for Fold Change Wk 3 Sel vs Non-Dan Baseline: dandruff subjects after 3 weeks 1% selenium sulfide shampoo vs non-dandruff subjects
Source text: In an embodiment, the use of an adhesive device can be used to achieve such sampling. In preparation for such a sampling study for a dandruff sampling, at a baseline visit, a qualified screening grader will complete adherent scalp flaking score (ASFS) grading for each subject and the highest flaking octant will be identified for tape strip sampling. The highest flaking octant will be sampled at baseline and at various time points during and after treatment with product. Tape strips samples will be collected from each subject at each time point (e.g., baseline and week 3).
The tape strip sampling procedure is repeated additional times, as needed, at the same site placing each D-Squame® tape disc on top of the prior sampled area. The D-Squame® tapes after sample collection are placed into the appropriately labeled wells in a labeled plate.
Following the sampling, an extraction and quantitation procedure is conducted. In an embodiment of the present invention, quantitation of small molecules from extracts of D-Squame® Tape Samples can be conducted via analysis by either LC/MS/MS or GC/MS/MS. In this embodiment of the present invention, the sample extraction in preparation for Metabolite expression profiling technology was performed.
The D-Squame® tape sample plates are removed from −80° C. freezer where they are stored following sample collection, and placed on dry ice. The tape strips are inserted into pre-labeled polypropylene collection tubes, adhesive side facing inward. Extraction buffer containing methanol and water is added to each collection tube and then extracted on ice using sonication for 15 min. If necessary, additional tapes are placed in the collection tube containing the extract solution and the extraction process is repeated as a means of concentrating the sample. Each extract solution is isolated from the tape strip and an aliquot of each sample is placed into a pre-labeled polypropylene collection tubes and frozen at −80° C. for metabolite expression profiling analysis. A separate aliquot is specified for soluble protein analysis using a BCA™ Protein Assay Kit. For this analysis, the aliquot consisting of methanol and water is taken to dryness under a gentle stream of nitrogen. The sample is resuspended in an appropriate aqueous buffer (e.g., PBS/SDS (1× PBS+0.2% SDS) and analyzed for soluble protein.
The extracts are analyzed by GC/MS/MS and LC/MS/MS in positive and negative ion mode. Chromatographic separation followed by full scan mass spectra and MS/MS spectra is carried out to record and quantify all detectable ions present in the samples. Metabolites with known chemical structure can be identified by matching the ions' chromatographic retention index and mass spectra fragmentation signatures with reference library entries created from authentic standard metabolites under the identical analytical procedure as the experimental samples. Welch's Two Sample t-tests and matched-pair t-tests are used to analyze the data. […] The statistical analyses are performed on natural log-transformed data to reduce the effect of any potential outliers in the data. Welch's Two Sample t-test comparisons are made between the means of each biochemical from the various groups listed at the top of the tables and are calculated using either or both of the statistical analysis software programs: Array Studio (Omicsoft, Inc) or “R” from the Free Software Foundation, Inc.
Subjects are evaluated by a qualified grader to establish their scalp status. Dandruff subjects are identified by their level of visible flaking as assessed by a qualified grader. Non-dandruff healthy scalp subjects are evaluated at baseline to establish normalized levels of each biomarker. In this study, there are 60 non-dandruff subjects that are evaluated at baseline. […] They are evaluated at baseline, and after 3 weeks of product usage.

[1] = dandruff subjects after 3 weeks treatment with Sel shampoo, metabolite level in scalp tape strip extract
[2] = dandruff subjects after 3 weeks treatment with ZPT shampoo, metabolite level in scalp tape strip extract

Compound	Fold Change Wk 3 Sel vs Dandruff Baseline	Fold Change Wk 3 ZPT vs Dandruff Baseline	Fold Change Wk 3 ZPT vs Non-Dan Baseline	Fold Change Wk 3 Sel vs Non-Dan Baseline	Mean Values WEEK 3 TRT ZPT (relative metabolite level in scalp tape strips, dandruff subjects after 3 weeks 1% ZPT shampoo)	Mean Values WEEK 3 TRT Sel (relative metabolite level in scalp tape strips, dandruff subjects after 3 weeks 1% selenium sulfide shampoo)	Mean Values WEEK 3 TRT Sel [1]	Mean Values WEEK 3 TRT ZPT [2]	reduction / decrease of metabolite level vs dandruff baseline (after three weeks ZPT shampoo) [%]	decrease of metabolite level vs dandruff baseline (after three weeks selenium sulfide shampoo) [%]
N[C@@H](CCC(=O)N[C@@H](CCC(=O)O)C(=O)O)C(=O)O [Gamma-glutamylglutamate]	0.95 fold	1.89** fold	2.09** fold	1.11 fold	1.7984	0.9586				
CC[C@H](C)[C@H](NC(=O)[C@@H](N)CO)C(=O)O [serylisoleucine*] (H-Ser-Ile-OH)							1.1161	0.9496		
CCCCCCCCCCCCCCCCC(=O)O [margarate (17:0), margarate]	0.31* fold	0.6*** fold	0.45* fold	0.25* fold			0.3903	0.6953		
O=P(O)(O)OCC(O)CO (centres unmarked) [glycerol 3-phosphate (G3P)]							0.8007	0.5943		
CCCCCC/C=C\CCCCCCCC(=O)O [Palmitoleate (16:1n7), Palmitoleate]	0.55* fold	0.83* fold	0.58* fold	0.43* fold			0.6347	0.8507		
CC(C)CCC[C@@H](C)[C@H]1CC[C@H]2[C@@H]3[C@H](O)C=C4C[C@@H](O)CC[C@]4(C)[C@H]3CC[C@]12C [7-alpha-hydroxycholesterol]							0.9662	0.959		
CCCCCCCCCCCCCCCCCC(=O)NCCO [Stearoyl ethanolamide]	5.03** fold	2.94 fold	3.88** fold	4.41** fold			2.6645	2.3466		
dimethylarginine (SDMA + ADMA)							0.8338	1.0243		
CCCC/C=C\CCCCCCCC(=O)O [Myristoleate (14:1n5), Myristoleate]	0.53*** fold	0.8*** fold	0.6* fold	0.45* fold			0.6261	0.8341		
O=C(O)C(O)Cc1ccc(O)cc1 (centres unmarked) [3-(4-hydroxyphenyl)lactate]	0.44* fold	0.7*** fold	0.8 fold	0.84 fold			0.7878	0.7551		
CCCCC/C=C\C/C=C\CCCCCCCCCC(=O)O [dihomo-linoleate (20:2n6), dihomo-linoleate]	0.15* fold	0.3* fold	0.32* fold	0.17* fold			0.214	0.3984		
O=C(O)/C=C\c1cnc[nH]1 [cis-urocanate]	1.22 fold	1.19 fold	0.91 fold	0.99 fold						
CCCCCCCCC=CCCCCCCCCC(=O)O [10-nonadecenoate (19:1n9), 10-nonadecenoate]	0.14* fold	0.31* fold	0.38* fold	0.17* fold			0.1901	0.4088		
CCCCC/C=C\C/C=C\C/C=C\C/C=C\CCCC(=O)O [arachidonate (20:4n6), arachidonate]									44	70
NCCO [Ethanolamine]	1.63**** fold	1.08 fold	2.53**** fold	4.49** fold			1.7285	0.976		
CC(C)CCC[C@@H](C)[C@H]1CC[C@H]2C3=CC[C@H]4C[C@@H](O)CC[C@]4(C)[C@H]3CC[C@]12C [Lathosterol]							0.9469	0.7479		
CC(C)CCCCCCCCCCCCC(=O)O [isopalmitic acid]	0.23* fold	0.41* fold	0.41* fold	0.24* fold			0.3034	0.5169		
CCCCCCCCCCCCCCCCCCC(=O)O [nonadecanoate (19:0), nonadecanoate]	0.29* fold	0.47* fold	0.39* fold	0.26* fold			0.3608	0.5421		
linolenate [alpha or gamma; (18:3n3 or 6)]								0.8941		
Eicosenoate [Eicosenoate (20:1n9 or 11)]							0.202	0.3561		
Cn1cc(C(N)=O)ccc1=O [N1-Methyl-2-pyridone-5-carboxamide]	0.89 fold	1.57 fold	0.76 fold	0.54* fold			0.8271	1.1768		
NC(N)=O [Urea]	2.81**** fold	4.13 fold	3.75 fold	3.62** fold			2.5539	2.6469		
CC/C=C\C/C=C\C/C=C\CCCCCCCCCCCC(=O)O [docosatrienoate (22:3n3), docosatrienoate]	0.13* fold	0.26* fold	0.32 fold	0.15* fold			0.2735	0.5705		
CC(C)CCCCCCCCCCCCCC(=O)O [15-methylpalmitate]	0.31* fold	0.4* fold	0.35* fold	0.27* fold			0.3813	0.485		
CC(C)C[C@H](N)C(=O)N[C@@H](CCC(=O)O)C(=O)O [Leucylglutamate] (H-Leu-Glu-OH)	0.81* fold	1.13 fold	0.93 fold	1.02 fold			0.9581	0.874		
CCCCCCCCCCCCCCCCCCCCCC(=O)O [behenate (22:0), behenate]	0.84 fold	0.47 fold	0.34* fold	0.57*** fold						
